Some test systems named below: SF-268 CNS; A498 renal; NCI-H226 lung; UO-31 renal; LOX IMVI melanoma; SK-MEL-2 melanoma; SNB-19 CNS; SN12C renal; HCT-15 colon; NCI/ADR-RES ovarian.
Assay in all cases: NCI anticancer screen, dose series, 48 h

The structures appear in SMILES notation.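 48-hour exposure; five concentrations; linearly interpolated endpoints. GI50 is the concentration that inhibits growth by half. At the TGI there is no net growth.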

For the compound `O=C(Oc1ccc(Cl)cc1[N+](=O)[O-])c1ccccc1`, the TGI in the experiment with SF-268 CNS, in the experiment on A498 renal, in the experiment with NCI-H226 lung, with UO-31 renal, in the experiment with LOX IMVI melanoma and in the experiment on SK-MEL-2 melanoma was greater than 100 µM each time. The TGI in the experiment on SNB-19 CNS, in the experiment with SN12C renal and in the experiment on HCT-15 colon was greater than 100 µM in each case.
Regarding `COc1cc(/C=C/C(=O)CC(=O)/C=C/c2ccc(O)c(OC)c2)ccc1O`, the TGI with NCI/ADR-RES ovarian was found to be 27.6 µM; in the experiment with SF-268 CNS, 36.1 µM; in the experiment with A498 renal, 33.1 µM; in the experiment on NCI-H226 lung it was 53.7 µM; in the experiment on UO-31 renal, 24.8 µM; in the experiment on LOX IMVI melanoma it was 15.5 µM. For the same compound, the TGI in the experiment on SK-MEL-2 melanoma amounted to 40.3 µM; with SNB-19 CNS, 15.7 µM; with SN12C renal it was 25.1 µM; in the experiment with HCT-15 colon, 18.5 µM.
In the case of `C=C1C(=O)OC2CC1CCC1(C)OC1CCC(C)=CCCC2(C)O` (stereo unspecified), the TGI in the experiment with NCI/ADR-RES ovarian stood at 5.84 µM; with SF-268 CNS, 14.2 µM; with A498 renal, 3.52 µM; in the experiment on NCI-H226 lung, 9.17 µM; with UO-31 renal, 18.7 µM; in the experiment with LOX IMVI melanoma it was 8.71 µM. In addition, the TGI in the experiment on SK-MEL-2 melanoma came out at 14.2 µM; in the experiment on SNB-19 CNS it was 39.9 µM; in the experiment on SN12C renal, 11.6 µM; in the experiment with HCT-15 colon it was 7.79 µM.
Regarding `C=CCNS(=O)(=O)c1ncnc2nc[nH]c12`, the TGI in the experiment on NCI/ADR-RES ovarian, in the experiment with A498 renal, with NCI-H226 lung, in the experiment on UO-31 renal, in the experiment with LOX IMVI melanoma and in the experiment with SK-MEL-2 melanoma was greater than 100 µM throughout. Also, the TGI with SNB-19 CNS, with SN12C renal and in the experiment with HCT-15 colon was greater than 100 µM each time.
On to `C=CCSSCC=C`, for which the TGI was greater than 73.2 µM in the experiment on NCI/ADR-RES ovarian; greater than 90.5 µM in the experiment on SF-268 CNS; greater than 100 µM in the experiment with A498 renal; greater than 92.6 µM with NCI-H226 lung; greater than 100 µM in the experiment on UO-31 renal; greater than 38.6 µM with LOX IMVI melanoma. Moreover, the TGI with SK-MEL-2 melanoma is greater than 100 µM; in the experiment on SNB-19 CNS, greater than 100 µM; in the experiment on SN12C renal it was greater than 86.9 µM; in the experiment on HCT-15 colon, greater than 100 µM.
Regarding `Br/C(=N\Nc1nn[nH]n1)c1ccncc1`, the TGI in the experiment with NCI/ADR-RES ovarian, in the experiment on SF-268 CNS, with A498 renal, in the experiment with NCI-H226 lung, in the experiment with LOX IMVI melanoma and in the experiment on SK-MEL-2 melanoma was greater than 100 µM each time. Besides, the TGI with SNB-19 CNS, in the experiment with SN12C renal and with HCT-15 colon was greater than 100 µM each time.
Regarding `CC(=O)NNC(=O)C1CCCCN1` (stereo unspecified), the TGI in the experiment on SF-268 CNS, in the experiment on A498 renal, in the experiment with NCI-H226 lung, in the experiment on LOX IMVI melanoma, with SK-MEL-2 melanoma and in the experiment on SNB-19 CNS was greater than 100 µM each time. The TGI with SN12C renal and in the experiment on HCT-15 colon was greater than 100 µM throughout.
As to `COc1ccc(NC(=S)N/N=C(\C)c2nc3ncccc3[nH]2)cc1`, the TGI with NCI/ADR-RES ovarian is greater than 100 µM; in the experiment on SF-268 CNS it was greater than 100 µM; in the experiment on A498 renal it was 98.2 µM; in the experiment on NCI-H226 lung, 21.7 µM; with UO-31 renal, 12 µM; in the experiment with LOX IMVI melanoma, 28.7 µM. The TGI in the experiment on SK-MEL-2 melanoma, in the experiment on SNB-19 CNS, in the experiment on SN12C renal and in the experiment with HCT-15 colon was greater than 100 µM each time.
For `CN1CC(CNC(=O)OCc2ccccc2)CC2c3cccc4c3c(cn4C)CC21` (stereo unspecified), the GI50 in the experiment on NCI/ADR-RES ovarian was 1.82 µM; with SF-268 CNS it was 3.48 µM; in the experiment with A498 renal, 3.47 µM; with NCI-H226 lung, 2.82 µM; with UO-31 renal it was 1.24 µM; with LOX IMVI melanoma, 1.64 µM. In addition, the GI50 is 1.88 µM with SK-MEL-2 melanoma, 1.8 µM in the experiment on SNB-19 CNS, 2.86 µM with SN12C renal and 1.69 µM in the experiment on HCT-15 colon. In addition, the TGI in the experiment on NCI/ADR-RES ovarian is 4.49 µM; in the experiment with SF-268 CNS, 13.4 µM; in the experiment with A498 renal, 16 µM; with NCI-H226 lung it was 9.06 µM; in the experiment on UO-31 renal, 4.22 µM; in the experiment on LOX IMVI melanoma it was 3.21 µM. The TGI in the experiment on SK-MEL-2 melanoma turned out to be 3.45 µM; in the experiment with SNB-19 CNS, 3.99 µM; with SN12C renal, 11.3 µM; in the experiment with HCT-15 colon, 3.52 µM.
On to `COc1c(OC/C=C(\C)CCC=C(C)C)ccc2ccc(=O)oc12`, for which the TGI in the experiment on NCI/ADR-RES ovarian, with SF-268 CNS, with A498 renal, with UO-31 renal, in the experiment on LOX IMVI melanoma and in the experiment with SK-MEL-2 melanoma was greater than 100 µM each time. Moreover, the TGI with SNB-19 CNS, with SN12C renal and in the experiment with HCT-15 colon was greater than 100 µM in each case.
Regarding `COc1ccc(OC)c(CC(C)N)c1` (stereo unspecified), the TGI in the experiment with SF-268 CNS, in the experiment on A498 renal, in the experiment on NCI-H226 lung, in the experiment with UO-31 renal, in the experiment on LOX IMVI melanoma and with SK-MEL-2 melanoma was greater than 100 µM throughout. Besides, the TGI with SNB-19 CNS, with SN12C renal and with HCT-15 colon was greater than 100 µM each time.
For the compound `O=C(/C=C/c1ccccc1)N1CCCCC1`, the TGI in the experiment on NCI/ADR-RES ovarian, in the experiment on SF-268 CNS, with A498 renal, in the experiment on NCI-H226 lung, in the experiment on UO-31 renal and in the experiment with LOX IMVI melanoma was greater than 100 µM throughout. Besides, the TGI in the experiment with SK-MEL-2 melanoma, in the experiment on SNB-19 CNS, with SN12C renal and with HCT-15 colon was greater than 100 µM in each case.
As to `O=C1OCc2cc3cc4c(cc3c(-c3ccc5c(c3)OCO5)c21)OCO4` (tested in a mixture with another compound), the TGI is greater than 100 µM in the experiment on NCI/ADR-RES ovarian; greater than 100 µM in the experiment on A498 renal; 29.3 µM in the experiment on NCI-H226 lung; 63.8 µM in the experiment with UO-31 renal; greater than 100 µM in the experiment with LOX IMVI melanoma; 68 µM with SK-MEL-2 melanoma. Besides, the TGI in the experiment with SNB-19 CNS, with SN12C renal and with HCT-15 colon was greater than 100 µM throughout.
For the compound `Cn1c2c3ccc(Cl)cc3nc-2c(Cl)c2ccccc21`, the TGI was 69.2 µM with NCI/ADR-RES ovarian; 36.3 µM in the experiment on SF-268 CNS; 45.1 µM in the experiment with A498 renal; 62.5 µM in the experiment on NCI-H226 lung; 32.6 µM in the experiment with UO-31 renal; 72.3 µM in the experiment on LOX IMVI melanoma. The TGI was 48.2 µM in the experiment on SK-MEL-2 melanoma, greater than 100 µM in the experiment on SNB-19 CNS, 34.5 µM in the experiment on SN12C renal and 47.1 µM in the experiment on HCT-15 colon.
Regarding `O=C1OC2CC=CC1C2` (stereo unspecified), the TGI in the experiment on NCI/ADR-RES ovarian, with SF-268 CNS, with A498 renal, with NCI-H226 lung, in the experiment on UO-31 renal and in the experiment on LOX IMVI melanoma was greater than 100 µM in each case. In addition, the TGI in the experiment with SK-MEL-2 melanoma, in the experiment with SNB-19 CNS, with SN12C renal and with HCT-15 colon was greater than 100 µM throughout.
Regarding `O=C(COc1ccc(Cl)c(Cl)c1)N(Cc1ccccc1)Cc1ccc[n+](Cc2ccc(Cl)cc2S(=O)(=O)F)c1`, the TGI is greater than 100 µM in the experiment on NCI/ADR-RES ovarian; greater than 100 µM with SF-268 CNS; greater than 100 µM with A498 renal; greater than 100 µM in the experiment with NCI-H226 lung; greater than 100 µM in the experiment with UO-31 renal; 70.1 µM in the experiment with SK-MEL-2 melanoma. The TGI with SNB-19 CNS, in the experiment with SN12C renal and in the experiment on HCT-15 colon was greater than 100 µM throughout.
As to `O=C1CCCC2C3CC(CN12)C1CCCCN1C3` (stereo unspecified), the TGI in the experiment on NCI/ADR-RES ovarian, in the experiment on SF-268 CNS, in the experiment on A498 renal, with NCI-H226 lung, in the experiment on UO-31 renal and with LOX IMVI melanoma was greater than 100 µM in each case. In addition, the TGI in the experiment on SK-MEL-2 melanoma, in the experiment with SNB-19 CNS, in the experiment on SN12C renal and in the experiment with HCT-15 colon was greater than 100 µM in each case.
In the case of `CCCC(=O)O.CCCC(=O)O.CCCC(=O)O.CCCC(=O)O.[Rh].[Rh]`, the GI50 is 0.185 µM in the experiment with NCI/ADR-RES ovarian; 0.151 µM in the experiment on A498 renal; 0.104 µM in the experiment with LOX IMVI melanoma; 0.285 µM in the experiment with SK-MEL-2 melanoma; 0.155 µM in the experiment on HCT-15 colon. Besides, the TGI is 0.589 µM in the experiment with NCI/ADR-RES ovarian; 0.325 µM with A498 renal; 0.225 µM in the experiment on LOX IMVI melanoma; 0.896 µM in the experiment with SK-MEL-2 melanoma; 0.762 µM in the experiment on HCT-15 colon.
Regarding `Cl/C(=C\C=Nc1ccc(I)cc1)c1ccc2ccccc2c1`, the TGI in the experiment with NCI/ADR-RES ovarian was 32.5 µM; in the experiment on SF-268 CNS, 65.4 µM; with A498 renal it was greater than 90 µM; with NCI-H226 lung, greater than 59.7 µM; in the experiment on UO-31 renal, greater than 55.9 µM; with LOX IMVI melanoma, 30.9 µM. Further, the TGI in the experiment on SK-MEL-2 melanoma was 56.1 µM; in the experiment with SNB-19 CNS it was 39.7 µM; with SN12C renal, 40.6 µM; in the experiment on HCT-15 colon, 33.8 µM.
Regarding `c1ccc(C[N+]23CN4CN(CN(C4)C2)C3)cc1`, the TGI in the experiment on NCI/ADR-RES ovarian is greater than 100 µM; in the experiment with SF-268 CNS it was 85.8 µM; in the experiment on A498 renal, greater than 100 µM; with NCI-H226 lung, greater than 100 µM; in the experiment with UO-31 renal, 43.7 µM; in the experiment with LOX IMVI melanoma, 48.2 µM. The TGI in the experiment with SK-MEL-2 melanoma is 34.6 µM; in the experiment with SNB-19 CNS it was 71.2 µM; in the experiment on SN12C renal, greater than 100 µM; with HCT-15 colon it was greater than 100 µM.

The values above are taken from PubChem BioAssay (NCI).
